Experimental data: ChEMBL document CHEMBL1139100, “Discovery of anticonvulsant activity of abietic acid through application of linear discriminant analysis” (Bioorg Med Chem Lett, 2007)
Activity calls are given as the source filed them. The rule behind the calls is not given here.

Legend:
Mus musculus [1] = experiment: Neurotoxicity against Swiss mouse at 30 mg/kg, po after 0.5 hrs by rotarod test; assay type: toxicity, organism-based; set-up: dose 30 mg/kg, route oral; details: in vivo
Mus musculus [2] = experiment: Neurotoxicity against Swiss mouse at 100 mg/kg, po after 4 hrs by rotarod test; assay type: toxicity, organism-based; set-up: dose 100 mg/kg, route oral; details: in vivo
Mus musculus [3] = experiment: Anticonvulsant activity in Swiss mouse at 100 mg/kg, po after 0.5 hrs by MES test; assay type: functional, organism-based; set-up: dose 100 mg/kg
Mus musculus [4] = experiment: Neurotoxicity against Swiss mouse at 30 mg/kg, ip after 4 hrs by rotarod test; assay type: toxicity, organism-based; set-up: dose 30 mg/kg, route intraperitoneal; details: in vivo
Mus musculus [5] = experiment: Anticonvulsant activity in Swiss mouse at 100 mg/kg, ip after 4 hrs by MES test; assay type: functional, organism-based; set-up: dose 100 mg/kg
Mus musculus [6] = experiment: Anticonvulsant activity in Swiss mouse at 100 mg/kg, po after 0.5 hrs by PTZ test; assay type: functional, organism-based; set-up: dose 100 mg/kg
Mus musculus [7] = experiment: Anticonvulsant activity in Swiss mouse at 30 mg/kg, po after 0.5 hrs by PTZ test; assay type: functional, organism-based; set-up: dose 30 mg/kg
Mus musculus [8] = experiment: Neurotoxicity against Swiss mouse at 30 mg/kg, ip after 0.5 hrs by rotarod test; assay type: toxicity, organism-based; set-up: dose 30 mg/kg, route intraperitoneal; details: in vivo
Mus musculus [9] = experiment: Anticonvulsant activity in Swiss mouse at 100 mg/kg, ip after 4 hrs by PTZ test; assay type: functional, organism-based; set-up: dose 100 mg/kg
Mus musculus [10] = experiment: Neurotoxicity against Swiss mouse at 30 mg/kg, po after 4 hrs by rotarod test; assay type: toxicity, organism-based; set-up: dose 30 mg/kg, route oral; details: in vivo
Mus musculus [11] = experiment: Anticonvulsant activity in Swiss mouse at 30 mg/kg, po after 4 hrs by PTZ test; assay type: functional, organism-based; set-up: dose 30 mg/kg
Mus musculus [12] = experiment: Neurotoxicity against Swiss mouse at 100 mg/kg, po after 0.5 hrs by rotarod test; assay type: toxicity, organism-based; set-up: dose 100 mg/kg, route oral; details: in vivo
Mus musculus [13] = experiment: Anticonvulsant activity in Swiss mouse at 100 mg/kg, ip after 0.5 hrs by MES test; assay type: functional, organism-based; set-up: dose 100 mg/kg
Mus musculus [14] = experiment: Neurotoxicity against Swiss mouse at 100 mg/kg, ip after 0.5 hrs by rotarod test; assay type: toxicity, organism-based; set-up: dose 100 mg/kg, route intraperitoneal; details: in vivo
Mus musculus [15] = experiment: Anticonvulsant activity in Swiss mouse at 100 mg/kg, po after 4 hrs by PTZ test; assay type: functional, organism-based; set-up: dose 100 mg/kg
Mus musculus [16] = experiment: Anticonvulsant activity in Swiss mouse at 30 mg/kg, ip after 4 hrs by PTZ test; assay type: functional, organism-based; set-up: dose 30 mg/kg
Mus musculus [17] = experiment: Anticonvulsant activity in Swiss mouse at 100 mg/kg, ip after 0.5 hrs by PTZ test; assay type: functional, organism-based; set-up: dose 100 mg/kg
Mus musculus [18] = experiment: Anticonvulsant activity in Swiss mouse at 30 mg/kg, po after 4 hrs by MES test; assay type: functional, organism-based; set-up: dose 30 mg/kg
Mus musculus [19] = experiment: Anticonvulsant activity in Swiss mouse at 30 mg/kg, po after 0.5 hrs by MES test; assay type: functional, organism-based; set-up: dose 30 mg/kg
Mus musculus [20] = experiment: Anticonvulsant activity in Swiss mouse at 30 mg/kg, ip after 0.5 hrs by MES test; assay type: functional, organism-based; set-up: dose 30 mg/kg
Mus musculus [21] = experiment: Anticonvulsant activity in Swiss mouse at 30 mg/kg, ip after 0.5 hrs by PTZ test; assay type: functional, organism-based; set-up: dose 30 mg/kg
Mus musculus [22] = experiment: Neurotoxicity against Swiss mouse at 100 mg/kg, ip after 4 hrs by rotarod test; assay type: toxicity, organism-based; set-up: dose 100 mg/kg, route intraperitoneal; details: in vivo
Mus musculus [23] = experiment: Anticonvulsant activity in Swiss mouse at 30 mg/kg, ip after 4 hrs by MES test; assay type: functional, organism-based; set-up: dose 30 mg/kg
Mus musculus [24] = experiment: Anticonvulsant activity in Swiss mouse at 100 mg/kg, po after 4 hrs by MES test; assay type: functional, organism-based; set-up: dose 100 mg/kg

SMILES: CC(C)C1=CC2=CC[C@@H]3[C@](C)(CCC[C@@]3(C)C(=O)O)[C@H]2CC1 [ABIETIC ACID]
- Activity (Mus musculus [1]): Non-toxic
- Activity (Mus musculus [2]): Non-toxic
- Activity (Mus musculus [3]): inactive
- Activity (Mus musculus [4]): Non-toxic
- Activity (Mus musculus [5]): Active
- Activity (Mus musculus [6]): inactive
- Activity (Mus musculus [7]): inactive
- Activity (Mus musculus [8]): Non-toxic
- Activity (Mus musculus [9]): inactive
- Activity (Mus musculus [10]): Non-toxic
- Activity (Mus musculus [11]): inactive
- Activity (Mus musculus [12]): Non-toxic
- Activity (Mus musculus [13]): inactive
- Activity (Mus musculus [14]): Non-toxic
- Activity (Mus musculus [15]): inactive
- Activity (Mus musculus [16]): inactive
- Activity (Mus musculus [17]): inactive
- Activity (Mus musculus [18]): Active
- Activity (Mus musculus [19]): inactive
- Activity (Mus musculus [20]): inactive
- Activity (Mus musculus [21]): inactive
- Activity (Mus musculus [22]): Non-toxic
- Activity (Mus musculus [23]): Active
- Activity (Mus musculus [24]): Active
